Data as given in patent publication US10494379B2, “6-oxa-3,9,15-triaza-bicyclo[9.3.1]pentadeca-1(14),11(15),12-triene derivatives based compounds and their application as ligands of essential metal ion based MRI and 52MN based PET contrast agents” (DEBRECENI EGYETEM, priority 2015, dated 2019).

Key:
[1] = Equilibrium study: protonation constants and total basicity of the ligands; format: physicochemical; conditions: 25° C., 0.15M NaCl
Protocol: (§1) During the physico-chemical studies of tOPC2A, tOPC2M^Pyp and tOPC2M^Pro compounds prepared according to Example 1, 2, and 5, their protonation constants, as well as equilibrium behaviour and kinetic inertness of their Mn(II) complexes was studied in detail, and the characteristic relaxivity values of the complexes were determined in the presence and absence of HSA (Human Serum Albumin), at 25 and 37° C. and physiological pH. All studies were performed in the presence of 0.15 M NaCl, the same concentration as that of the electrolyte under physiological conditions.
(§2) The results of equilibrium study are summarized in Table 1, in addition to the protonation constants, total basicity of ligands and stability constants of their Mn(II) complexes, the pMn value calculated for complexes are also represented in the table.

[2] = Equilibrium study: stability constants of Mn(II) complexes and calculated pMn; format: physicochemical; conditions: 25° C., 0.15M NaCl; for pMn: calculated from equilibrium constants at pH = 7.4 and cMn = cL = 10^−5 M
Protocol: as §1, §2
Based on the pMn values presented in Table 1 (calculated using the equilibrium constants at pH=7.4 and cMn=cL=10^−5 M), it can be concluded that the studied Mn(II) complexes are formed in 100% at physiological pH, which is an essential aspect of the practical use.

[3] = cited from earlier work
[4] = literature values, 'under the same conditions'; cited from earlier work

| SMILES | logK1 (protonation constant) [1] | logK2 (protonation constant) [1] | logK3 (protonation constant) [1] | logK4 (protonation constant) [1] | ΣlogKi^H (total basicity) [1] | logKMnL (stability constant of Mn(II) complex) [2] | pMn [2] | Gd(III) release at 37° C. relative to value calculated from experiments at 25° C. ([3]; 37° C. vs 25° C.) [fold] | Gd(III) ion released during in vivo dissociation ([3]; 37° C.) [%] | r1 (relaxivity) [4] [mM⁻¹ s⁻¹] |
| --- | --- | --- | --- | --- | --- | --- | --- | --- | --- | --- |
| O=C(O)C1CCCN1C(=O)CN1CCOCCN(CC(=O)N2CCCC2C(=O)O)Cc2cccc(n2)C1 (stereo not shown) [tOPC2AM^Pro] | 7.37(3) | 5.14(4) | 3.26(4) | 2.40(4) | 18.17 | 10.03(1) | 7.37 |  |  |  |
| CNC[C@H](O)[C@@H](O)[C@H](O)[C@H](O)CO.CNC[C@H](O)[C@@H](O)[C@H](O)[C@H](O)CO.O=C([O-])CN(CCN(CC(=O)[O-])CC(=O)O)CCN(CC(=O)[O-])CC(=O)O.[Gd+3] [MAGNEVIST] |  |  |  |  |  |  |  | 4.4 | 2.2 | 4.02 |
| O=C(CN1CCOCCN(CC(=O)N2CCCCC2)Cc2cccc(n2)C1)N1CCCCC1 [tOPC2AM^Pyp, 3,9-bis[2-oxo-2-(piperidin-1-yl)-ethyl]-6-oxa-3,9,15-triaza-bicyclo[9.3.1]pentadeca-1(14),11(15),12-triene] | 7.91(2) | 5.51(3) |  |  | 13.42 | 10.84(4) | 7.60 |  |  |  |
| CNC[C@H](O)[C@@H](O)[C@H](O)[C@H](O)CO.O=C([O-])CN1CCN(CC(=O)[O-])CCN(CC(=O)O)CCN(CC(=O)[O-])CC1.[Gd+3] [DOTAREM] |  |  |  |  |  |  |  |  |  | 3.83 |
| O=C(O)CN1CCOCCN(CC(=O)O)Cc2cccc(n2)C1 [tOPC2A, 4-oxo-1,7-diaza-2,6-pyridinophane-diacetate] | 7.73(2) | 7.66(1) | 2.13(1) |  | 17.52 | 13.03(1) | 8.59 |  |  |  |
